Results on 11 compounds are retold here after ChEMBL document CHEMBL1201862, “PubChem BioAssay data set” (2004).

Values joined by “and” are separate entries in the source; they are usually repeats but may differ in a detail not shown here. Identical values can stand only once.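 Growth conditions: 96-well plates. Treatment: test compound, 48 hours, 5 concentrations. Analysis: linear interpolation between bracketing concentrations; unreached endpoints set to highest concentration. The concentration for 50% growth inhibition is given as GI50.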 Active and inactive are the calls of the source. No stated cut-off is given here; in the data, active = GI50 up to about 1.1 µM and inactive = higher. Bridge positions count the residues as written; N and C are the ends. Square brackets hold non-standard residues; d marks the D form. Peptide text beside a SMILES is read from it. * marks the point of attachment. Cbz = O=C(OCc1ccccc1)*; Dab = NCC[CH](N)C(=O)O; Bn = c1ccc(C*)cc1 Some results are limits rather than exact numbers.

Test systems include MDA-N; SK-MEL-28; NCI-H23; MDA-MB-231; M14; HCC 2998; K562; HOP-92; SF-295; OVCAR-8; HCT-15; UACC-257; A549; NCI/ADR-RES; OVCAR-5; 786-0; SNB-75; SNB-19; A498; SK-MEL-2.
Experiment in all cases: NCI-60 cell line screen, 48 h

Consider `Cn1cc(NC(=O)Nc2cc(C(=O)Nc3cc(C(=O)Nc4ccc5cc(S(=O)(=O)O)cc(S(=O)(=O)O)c5c4)n(C)c3)n(C)c2)cc1C(=O)Nc1cc(C(=O)Nc2ccc3cc(S(=O)(=O)O)cc(S(=O)(=O)O)c3c2)n(C)c1`, for which the GI50 with MDA-N is > 100 µM (inactive); in the assay with SK-MEL-28, > 100 µM (inactive); in the assay on NCI-H23 it was > 100 µM (inactive); in the assay on MDA-MB-231, > 100 µM (inactive); in the assay on M14, 91.4 µM (inactive); in the assay with HCC 2998, > 100 µM (inactive). Also, the GI50 was > 100 µM (inactive) with K562; 90.8 µM (inactive) with HOP-92; > 100 µM (inactive) with SF-295; > 100 µM (inactive) in the assay with OVCAR-8; > 100 µM in the assay on HCT-15; > 100 µM (inactive) in the assay on UACC-257. For the same compound, the GI50 in the assay with A549 was 84.9 µM (inactive); in the assay on NCI/ADR-RES it was > 100 µM (inactive); with OVCAR-5, > 100 µM (inactive); in the assay with 786-0 it was > 100 µM (inactive); with SNB-75, 82 µM (inactive); in the assay on SNB-19, > 100 µM (inactive).
As to `COc1cc2c(c(O)c1OC)-c1c(cc(OC)c(OC)c1OC)CC(C)C(C)C2` (stereo unspecified) [GOMISIN K3], the GI50 with MDA-N was 73.3 µM (inactive); in the assay with SK-MEL-28, 67.1 µM (inactive); with NCI-H23 it was 49 µM (inactive); with MDA-MB-231, 37.8 µM (inactive); with M14, 45.1 µM (inactive); in the assay on HCC 2998, 42.3 µM (inactive). The GI50 in the assay with K562 was 38.8 µM (inactive); in the assay on HOP-92, 36.7 µM (inactive); in the assay with SF-295, 33.9 µM (inactive); in the assay on OVCAR-8, 51.9 µM (inactive); in the assay with HCT-15, 33 µM; with UACC-257 it was 25.6 µM (inactive). Besides, the GI50 with A498 is 35.1 µM (inactive); in the assay with A549, 43.7 µM (inactive); with SK-MEL-2, 45.2 µM (inactive); in the assay on OVCAR-5, > 100 µM (inactive); in the assay on 786-0 it was 37.7 µM (inactive); in the assay with SNB-75 it was 34.3 µM (inactive). The GI50 with SNB-19 is 60.8 µM (inactive).
With `CC(C)CC1NC(=O)C(Cc2ccccc2)NC(=O)C(Cc2ccccc2)NC(=O)C(NC(=O)C(Cc2ccc(OCc3ccccc3)cc2)NC(=O)OCc2ccccc2)CCNC1=O` (stereo unspecified) (Cbz-Y(Bn)[Dab]FFL; lactam 2-C; configuration not given here), the GI50 is 36.1 µM (inactive) in the assay on MDA-N; > 100 µM (inactive) with SK-MEL-28; 87.1 µM (inactive) in the assay on NCI-H23; 16.4 µM (inactive) in the assay on MDA-MB-231; 18.6 µM (inactive) in the assay with M14; > 100 µM (inactive) with HCC 2998. The GI50 is > 100 µM (inactive) with K562; 40.2 µM (inactive) in the assay with HOP-92; > 100 µM (inactive) in the assay with SF-295; > 100 µM (inactive) with OVCAR-8; 41.3 µM in the assay with HCT-15; 32.1 µM (inactive) in the assay on UACC-257. Besides, the GI50 in the assay on NCI/ADR-RES was > 100 µM (inactive); in the assay with OVCAR-5, > 100 µM (inactive); in the assay on 786-0, 41.1 µM (inactive); in the assay on SNB-19, > 100 µM (inactive).
`Cc1cn(C2CC(N(O)Cc3ccccc3)C(CO[Si](C)(C)C(C)(C)C)O2)c(=O)[nH]c1=O` (stereo unspecified): the GI50 with MDA-N was 18.9 µM (inactive) and 17.4 µM (inactive); with NCI-H23, 26.6 µM (inactive) and 16.7 µM (inactive); in the assay with MDA-MB-231, 16.8 µM (inactive) and 16.5 µM (inactive); in the assay with M14, 16.6 µM (inactive) and 19.5 µM (inactive); in the assay on HCC 2998 it was 19.8 µM (inactive) and 16.7 µM (inactive); with K562, 24.4 µM (inactive) and 27 µM (inactive). For the same compound, the GI50 with HOP-92 is 16 µM (inactive) and 18.7 µM (inactive); in the assay with SF-295 it was 17.2 µM (inactive) and 18.8 µM (inactive); with OVCAR-8, 17.8 µM (inactive) and 25.7 µM (inactive); with HCT-15, 37.2 µM; in the assay on UACC-257 it was 16.4 µM (inactive) and 26.4 µM (inactive); in the assay with A498 it was 13.8 µM (inactive) and 26.7 µM (inactive). The GI50 in the assay on SK-MEL-2 was 20.3 µM (inactive); with OVCAR-5, 18.6 µM (inactive) and 19.7 µM (inactive); with 786-0 it was 17.4 µM (inactive) and 15.6 µM (inactive); in the assay on SNB-19 it was 18.6 µM (inactive) and 34.9 µM (inactive).
For `Cc1c(-c2nc3ccccc3[nH]2)c(=O)n(-c2ccccc2)n1C`, the GI50 in the assay with MDA-N, in the assay with SK-MEL-28, with NCI-H23, in the assay on MDA-MB-231, in the assay on M14 and in the assay on HCC 2998 was > 100 µM (inactive) throughout. Also, the GI50 with K562 is > 100 µM (inactive); in the assay with HOP-92, > 100 µM (inactive); in the assay with SF-295, > 100 µM (inactive); in the assay with OVCAR-8 it was > 100 µM (inactive); in the assay on HCT-15 it was > 100 µM; in the assay with UACC-257, > 100 µM (inactive). In addition, the GI50 with A549, in the assay on SK-MEL-2, in the assay on NCI/ADR-RES, with 786-0, in the assay on SNB-75 and in the assay with SNB-19 was > 100 µM (inactive) throughout.
With `Nc1ccc2nc3n(c2c1)C(c1c(F)cccc1F)SC3` (stereo unspecified), the GI50 in the assay with MDA-N, with SK-MEL-28, with NCI-H23, in the assay with MDA-MB-231, with M14 and with HCC 2998 was > 100 µM (inactive) throughout. Moreover, the GI50 in the assay with K562 was 85.5 µM (inactive); in the assay on SF-295, 98.9 µM (inactive); in the assay with OVCAR-8 it was > 100 µM (inactive); with HCT-15, > 100 µM; with UACC-257 it was 89.1 µM (inactive); with A498 it was > 100 µM (inactive). For the same compound, the GI50 is > 100 µM (inactive) with A549; > 100 µM (inactive) in the assay with SK-MEL-2; > 100 µM (inactive) with NCI/ADR-RES; > 100 µM (inactive) in the assay on OVCAR-5; > 100 µM (inactive) in the assay on 786-0; 80.4 µM (inactive) in the assay on SNB-75. The GI50 in the assay on SNB-19 is > 100 µM (inactive).
For `NNC1=Nc2ccc(Cl)cc2C(=S)N2CSCC12` (stereo unspecified), the GI50 in the assay with MDA-N, with SK-MEL-28, in the assay on MDA-MB-231, in the assay with M14, in the assay with HCC 2998 and with K562 was > 100 µM (inactive) throughout. The GI50 is > 100 µM (inactive) in the assay with SF-295; > 100 µM (inactive) with OVCAR-8; > 100 µM in the assay on HCT-15; > 100 µM (inactive) in the assay with UACC-257; > 100 µM (inactive) in the assay on A498; > 100 µM (inactive) in the assay on A549. The GI50 in the assay with SK-MEL-2, with NCI/ADR-RES, in the assay with OVCAR-5, in the assay on 786-0, with SNB-75 and in the assay with SNB-19 was > 100 µM (inactive) throughout.
For the compound `O=C1c2ccccc2C(=O)c2c(NCCCN3CCOCC3)ccc(NCCCN3CCOCC3)c21`, the GI50 is 3.22 µM (inactive) in the assay on MDA-N; 5.79 µM (inactive) in the assay on SK-MEL-28; < 0.01 µM (active) in the assay with NCI-H23; 3.08 µM (inactive) in the assay on MDA-MB-231; 3.1 µM (inactive) in the assay with M14; 2.86 µM (inactive) in the assay with HCC 2998. For the same compound, the GI50 in the assay on K562 is 2.16 µM (inactive); in the assay on HOP-92, 1.89 µM (inactive); in the assay with SF-295, 1.94 µM (inactive); in the assay on OVCAR-8 it was 1.9 µM (inactive); with HCT-15, 2.55 µM; with UACC-257, 2.96 µM (inactive). The GI50 with A498 was 12 µM (inactive); with A549, 4.18 µM (inactive); in the assay with SK-MEL-2 it was 8.24 µM (inactive); with OVCAR-5, 9.42 µM (inactive); in the assay with 786-0, 2.29 µM (inactive); in the assay with SNB-75, 2.29 µM (inactive). Moreover, in the assay on SNB-19, the GI50 is 5.3 µM (inactive).
For the compound `O=C(Nc1ccccc1)N(C1=NCC(CI)S1)c1ccc(F)cc1F` (stereo unspecified), the GI50 in the assay with MDA-N is 35.9 µM (inactive); in the assay on SK-MEL-28, 24.1 µM (inactive); in the assay with NCI-H23, 50.6 µM (inactive); in the assay on MDA-MB-231, 20.2 µM (inactive); in the assay with M14 it was 79.1 µM (inactive); in the assay on HCC 2998, 74.3 µM (inactive). Further, the GI50 with K562 is 41.5 µM (inactive); with HOP-92, 13.8 µM (inactive); with SF-295 it was > 100 µM (inactive); in the assay on OVCAR-8, > 100 µM (inactive); in the assay with HCT-15, 25 µM; in the assay on UACC-257, 23.2 µM (inactive). Also, the GI50 is > 100 µM (inactive) in the assay with A549; > 100 µM (inactive) with SK-MEL-2; > 100 µM (inactive) with NCI/ADR-RES; > 100 µM (inactive) with OVCAR-5; 46 µM (inactive) with 786-0; > 100 µM (inactive) in the assay on SNB-75. The GI50 in the assay on SNB-19 is > 100 µM (inactive).
In the case of `COc1ccc(/N=N/N2CCCC2)cc1`, the GI50 in the assay on MDA-N was 16.9 µM (inactive); in the assay with SK-MEL-28, 44.2 µM (inactive); in the assay on NCI-H23 it was 61.7 µM (inactive); in the assay on MDA-MB-231, 20.5 µM (inactive); in the assay on M14, 44.8 µM (inactive); with HCC 2998, 45.6 µM (inactive). Besides, the GI50 in the assay with K562 is 31.4 µM (inactive); in the assay on HOP-92, 21.7 µM (inactive); with SF-295, > 100 µM (inactive); in the assay with HCT-15, 22.6 µM; in the assay on UACC-257 it was > 100 µM (inactive); in the assay with A498 it was > 100 µM (inactive). Also, the GI50 is > 100 µM (inactive) in the assay with A549; > 100 µM (inactive) with SK-MEL-2; 83.9 µM (inactive) in the assay on OVCAR-5; 15.6 µM (inactive) with 786-0; > 100 µM (inactive) in the assay on SNB-19.
As for `COC(=O)[C@]12CC3C=CC1N(C3)C(CBr)c1c2n(S(=O)(=O)c2ccccc2)c2ccccc12` (stereo partly specified), the GI50 with MDA-N was 60.1 µM (inactive); in the assay on SK-MEL-28, > 100 µM (inactive); with NCI-H23 it was 51.5 µM (inactive); with MDA-MB-231, 57.1 µM (inactive); with M14 it was > 100 µM (inactive); with HCC 2998 it was > 100 µM (inactive). The GI50 with K562 is 0.118 µM (active); with SF-295, 42.2 µM (inactive); with OVCAR-8, 49 µM (inactive); in the assay on HCT-15, 72.8 µM; in the assay with UACC-257 it was > 100 µM (inactive); in the assay with A549 it was 50.5 µM (inactive). For the same compound, the GI50 in the assay with SK-MEL-2 is 79.4 µM (inactive); with NCI/ADR-RES, > 100 µM (inactive); in the assay with OVCAR-5, > 100 µM (inactive); with 786-0, 43 µM (inactive); in the assay with SNB-75 it was 25.9 µM (inactive).
